Source: US8791132B2, “Compounds and methods for treatment of hypertension” (Medivation Technologies, Inc., priority 2011, dated 2014)
Like-named read-outs stand apart in the source and are kept apart here.

Legend:
[1] = molecular target: T1, human recombinant adrenergic α2B receptor (Homo sapiens, UniProt P18089); test: Radioligand binding, adrenergic α2B ([3H]Rauwolscine); settings: for inhibition at 0.03 µM: read-out: Percentage inhibition of ligand binding, Adrenergic α2B (0.03 μM), compound at 0.03 μM; for inhibition at 0.03 µM / Percentage inhibition of ligand binding, Adrenergic α2B (0.03 μM): repeat datapoints each shown
T1 construct: expressed in transfected cells; host or cells: CHO-K1
T1 sequence (P18089 1-450): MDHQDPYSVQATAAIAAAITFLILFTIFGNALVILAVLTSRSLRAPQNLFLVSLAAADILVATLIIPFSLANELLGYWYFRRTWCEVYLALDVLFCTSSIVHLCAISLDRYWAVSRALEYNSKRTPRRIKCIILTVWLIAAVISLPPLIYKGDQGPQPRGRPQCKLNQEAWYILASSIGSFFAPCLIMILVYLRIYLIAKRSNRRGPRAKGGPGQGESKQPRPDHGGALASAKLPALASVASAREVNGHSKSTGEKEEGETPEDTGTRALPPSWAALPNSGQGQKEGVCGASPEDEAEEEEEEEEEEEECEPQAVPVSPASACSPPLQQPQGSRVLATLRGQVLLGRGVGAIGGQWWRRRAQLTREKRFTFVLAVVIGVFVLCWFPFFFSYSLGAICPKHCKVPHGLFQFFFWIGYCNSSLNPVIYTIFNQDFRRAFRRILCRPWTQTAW
Experimental: To evaluate in radioligand binding assays the activity of compounds of the invention, human recombinant adrenergic α2B receptor expressed in Chinese hamster ovary (CHO) K1 cells (Uhlen, S. et al, Eur. J. Pharmacol. 343(1):93, 1998) in a modified Tris-HCl buffer (50 mM Tris-HCl, pH 7.4, 12.5 mM MgCl2, 1 mM EDTA, 0.2% BSA) was used. Compounds of the invention were incubated with 2.5 nM [3H]Rauwolscine for 60 min at 25° C. Non-specific binding was estimated in the presence of 10 μM Prazosin. Receptor proteins were filtered and washed, the filters were then counted to determine [3H]Rauwolscine specifically bound. […] Compounds of the invention were tested in this biochemical assay and percent inhibition of specific binding was determined. Biochemical assay results are presented as the percent inhibition of specific binding in Table B1.

[2] = molecular target: T2, human recombinant adrenergic α2A receptor (Homo sapiens, UniProt P08913); test: Radioligand binding, adrenergic α2A ([3H]MK-912)
T2 construct: expressed in transfected cells; host or cells: insect Sf9 cells
T2 sequence (P08913 1-465): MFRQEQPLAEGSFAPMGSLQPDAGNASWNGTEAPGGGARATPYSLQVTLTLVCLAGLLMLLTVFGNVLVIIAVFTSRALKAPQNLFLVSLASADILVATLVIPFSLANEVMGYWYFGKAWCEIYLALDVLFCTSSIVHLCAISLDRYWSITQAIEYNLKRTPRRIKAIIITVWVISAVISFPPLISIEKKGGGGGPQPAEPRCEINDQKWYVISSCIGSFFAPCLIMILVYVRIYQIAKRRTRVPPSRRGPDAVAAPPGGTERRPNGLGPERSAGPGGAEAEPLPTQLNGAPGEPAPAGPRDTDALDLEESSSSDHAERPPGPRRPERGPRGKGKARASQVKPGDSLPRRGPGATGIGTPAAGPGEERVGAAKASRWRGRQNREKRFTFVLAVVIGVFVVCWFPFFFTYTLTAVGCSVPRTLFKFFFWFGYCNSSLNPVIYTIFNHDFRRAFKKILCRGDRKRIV
Experimental: To evaluate in radioligand binding assays the activity of compounds of the invention, human recombinant adrenergic α2A receptor expressed in insect Sf9 cells (Uhlen, S. et al, J. Pharmacol. Exp. Ther. 271:1558, 1994) in a modified Tris-HCl buffer (50 mM Tris-HCl, pH 7.4, 12.5 mM MgCl2, 2 mM EDTA) was used. Compounds of invention were incubated with 1 nM [^3H]MK-912 for 60 min at 25° C. MK912 is (2S-trans)-1,3,4,5′,6,6′,7,12b-octahydro-1′,3′-dimethyl-spiro[2H-benzofuro[2,3-a]quinolizine-2,4′(1′H)-pyrimidin]-2′(3′H)-one hydrochloride. Non-specific binding was estimated in the presence of 10 μM WB-4101 (2-(2,6-Dimethoxyphenoxyethyl)aminomethyl-1,4-benzodioxane hydrochloride). Receptor proteins were filtered and washed, the filters were then counted to determine [^3H]MK-912 specifically bound. […] Compounds of the invention were tested in this biochemical assay and percent inhibition of specific binding was determined. Biochemical assay results are presented as the percent inhibition of specific binding in Table B1.

[3] = molecular target: T3, rat adrenergic α1B receptor (Rattus norvegicus, UniProt P15823); test: Radioligand binding, adrenergic α1B ([3H]Prazosin)
T3 construct: rat adrenergic α1B receptor obtained from Wistar Rat liver; from tissue; host or cells: Wistar rat liver
T3 sequence (P15823 1-515): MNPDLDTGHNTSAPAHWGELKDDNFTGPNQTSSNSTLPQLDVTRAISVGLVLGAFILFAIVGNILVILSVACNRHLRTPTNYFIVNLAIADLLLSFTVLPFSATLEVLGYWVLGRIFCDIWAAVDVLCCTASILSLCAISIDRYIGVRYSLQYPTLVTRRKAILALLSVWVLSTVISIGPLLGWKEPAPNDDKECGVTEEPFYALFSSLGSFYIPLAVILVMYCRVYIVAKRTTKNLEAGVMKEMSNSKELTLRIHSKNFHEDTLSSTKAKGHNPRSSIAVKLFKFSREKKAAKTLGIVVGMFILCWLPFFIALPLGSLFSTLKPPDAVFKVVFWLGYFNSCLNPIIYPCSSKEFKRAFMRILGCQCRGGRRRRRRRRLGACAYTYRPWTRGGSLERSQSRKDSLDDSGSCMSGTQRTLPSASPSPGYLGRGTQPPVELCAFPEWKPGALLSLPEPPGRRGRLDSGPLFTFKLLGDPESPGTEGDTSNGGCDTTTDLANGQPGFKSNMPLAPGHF
Experimental: To evaluate in radioligand binding assays the activity of compounds of the invention, rat adrenergic α1B receptor obtained from Wistar Rat liver (Garcia-S'ainz, J. et al, Biochem. Biophys. Res. Commun. 186:760, 1992; Michel, A. et al, Br. J. Pharmacol. 98:883, 1989) in a modified Tris-HCl buffer (50 mM Tris-HCl buffer, pH 7.4, 0.5 mM EDTA) was used. Compounds of the invention were incubated with 0.25 nM [^3H]Prazosin for 60 min at 25° C. Non-specific binding was estimated in the presence of 10 μM phentolamine. Receptor proteins were filtered and washed, the filters were then counted to determine [^3H]Prazosin specifically bound. […] Compounds of the invention were tested in this biochemical assay and percent inhibition of specific binding was determined. Biochemical assay results are presented as the percent inhibition of specific binding in Table B1.

[4] = compound at 0.03 μM, [3H]Rauwolscine, repeat assays, each datapoint shown, 0.03 µM
[5] = compound at 0.1 μM, [3H]MK-912, repeat assays, each datapoint shown, 0.1 µM
[6] = compound at 0.1 μM, [3H]Prazosin, repeat assays, each datapoint shown, 0.1 µM
[7] = read-out: Percentage inhibition of ligand binding, Adrenergic α2A (0.1 μM), compound at 0.1 μM, [3H]MK-912, repeat datapoints each shown
[8] = read-out: Percentage inhibition of ligand binding, Adrenergic α1B (0.1 μM), compound at 0.1 μM, [3H]Prazosin, repeat datapoints each shown
[9] = compound at 0.1 μM, [3H]MK-912, repeat datapoints each shown, 0.1 µM
[10] = compound at 0.1 μM, [3H]Prazosin, repeat datapoints each shown, 0.1 µM

## Cc1ccc2c(c1)c1c(n2C(C)C(O)c2ccccc2)CCN(C)C1 (single isomer, unassigned) [II-95b, 2-(2,8-dimethyl-1,2,3,4-tetrahydro-pyrido[4,3-b]indol-5-yl)1-phenyl-propan-1-ol]
[1]; 0.03 μM compound, 0.03 µM
  Percentage inhibition of ligand binding, Adrenergic α2B: 12%
[2]; 0.1 μM compound, 0.1 µM
  Percentage inhibition of ligand binding, Adrenergic α2A: −1%
[3]; 0.1 μM compound, 0.1 µM
  Percentage inhibition of ligand binding, Adrenergic α1B: −1%

## Cc1ccc2c(c1)c1c(n2CC(O)c2ccncc2)CCN2CCCCC12 (single isomer, unassigned) [47d]
[1]; [4]
  Percentage inhibition of ligand binding, Adrenergic α2B: 30%
[2]; [5]
  Percentage inhibition of ligand binding, Adrenergic α2A: −3%
[3]; [6]
  Percentage inhibition of ligand binding, Adrenergic α1B: 5%

## CNC(Cn1c2c(c3cc(C)ccc31)CN(C)CC2)c1ccc(F)cc1 (single isomer, unassigned) [II-12b, 2-(2,8-dimethyl-3,4-dihydro-1H-pyrido[4,3-b]indol-5(2H)-yl)-1-(4-fluorophenyl)-N-methyl ethanamine]
[1]; 0.03 μM compound, 0.03 µM
  Percentage inhibition of ligand binding, Adrenergic α2B: 65%
[2]; 0.1 μM compound, 0.1 µM
  Percentage inhibition of ligand binding, Adrenergic α2A: 15%
[3]; 0.1 μM compound, 0.1 µM
  Percentage inhibition of ligand binding, Adrenergic α1B: 11%

## CN1CCc2c(c3ccncc3n2CC(C)(O)c2cccnc2)C1 (stereo not drawn) [II-129]
[1]; [3H]Rauwolscine
  inhibition at 0.03 µM: 1%
[2]; [7]
  inhibition at 0.1 µM: 12%
[3]; [8]
  inhibition at 0.1 µM: 2%

## Cc1ccc2c(c1)c1c(n2CC(C)(O)c2ccc(C)nc2)CCN2CCCC12 (single isomer, unassigned) [II-128b, 1-(9-methyl-1,2,3,4,5,10c-hexahydro-3a,6-diaza-cyclopenta[c]fluoren-6-yl)-2-(6-methyl-pyridin-3-yl)-propan-2-ol]
[1]; compound at 0.03 μM, [3H]Rauwolscine, 0.03 µM
  Percentage inhibition of ligand binding, Adrenergic α2B (0.03 μM): 106%
[1]; read-out: Ki α2B
  Ki: 0.49 nM
[1]; [3H]Rauwolscine
  inhibition at 0.03 µM: 102%
[2]
  Ki: 13.1 nM
[2]; [9]
  Percentage inhibition of ligand binding, Adrenergic α2A (0.1 μM): 77%
[2]; read-out: Percentage inhibition of ligand binding, Adrenergic α2A (0.03 μM), compound at 0.03 μM, [3H]MK-912, repeat datapoints each shown
  inhibition at 0.03 µM: 50%
[2]; [7]
  inhibition at 0.1 µM: 74%
[3]; [10]
  Percentage inhibition of ligand binding, Adrenergic α1B (0.1 μM): 86%
[3]; read-out: Percentage inhibition of ligand binding, Adrenergic α1B (0.03 μM), compound at 0.03 μM, [3H]Prazosin, repeat datapoints each shown
  inhibition at 0.03 µM: 56%
[3]; [8]
  inhibition at 0.1 µM: 84%

## Cc1cnc2c(c1)c1c(n2CC(O)c2ccc(C#N)nc2)CCN(C)C1 (single isomer, unassigned) [II-114b, 5-[2-(3,6-dimethyl-5,6,7,8-tetrahydro-1,6,9-triaza-fluoren-9-yl)-1-hydroxy-ethyl]-pyridine-2-carbonitrile]
[1]; compound at 0.03 μM, [3H]Rauwolscine
  Percentage inhibition of ligand binding, Adrenergic α2B (0.03 μM): 40%
[2]; [9]
  Percentage inhibition of ligand binding, Adrenergic α2A (0.1 μM): −5%
[3]; [10]
  Percentage inhibition of ligand binding, Adrenergic α1B (0.1 μM): 7%

## Cc1cnc2c(c1)c1c(n2CC(O)c2ccc(C#N)cc2)CCNC1 (stereo not drawn) [II-116]
[1]; [3H]Rauwolscine
  inhibition at 0.03 µM: 43%
[2]; [7]
  inhibition at 0.1 µM: 3%
[3]; [8]
  inhibition at 0.1 µM: 4%

## Cc1cnc2c(c1)c1c(n2CC(O)c2ccncc2)CCNC1 (single isomer, unassigned) [58a, 2-(3-methyl-5,6,7,8-tetrahydro-1,6,9-triaza-fluoren-9-yl)-1-pyridin-4-yl-ethanol]
[1]; [4]
  Percentage inhibition of ligand binding, Adrenergic α2B: 5%
[2]; [5]
  Percentage inhibition of ligand binding, Adrenergic α2A: 9%
[3]; [6]
  Percentage inhibition of ligand binding, Adrenergic α1B: 7%

## Cc1cnc2c(c1)c1c(n2CC(O)c2ccncc2)CCN(C)C1 (single isomer, unassigned) [55a, 2-(3,6-dimethyl-5,6,7,8-tetrahydro-1,6,9-triaza-fluoren-9-yl)-1-pyridin-4-yl-ethanol]
[1]; [4]
  Percentage inhibition of ligand binding, Adrenergic α2B: 14%
[2]; [5]
  Percentage inhibition of ligand binding, Adrenergic α2A: 11%
[3]; [6]
  Percentage inhibition of ligand binding, Adrenergic α1B: 28%

## CN1CCc2c(n(CC(O)c3ccc(F)c(F)c3)c3ccc(Cl)cc23)CC1 (single isomer, unassigned) [339a]
[2]; 0.1 μM compound, 0.1 µM
  Percentage inhibition of ligand binding, Adrenergic α2A: 37%
[3]; 0.1 μM compound, read-out: Percentage inhibition of ligand binding, Adrenergic α1B
  inhibition at 0.1 µM: 13%

## Cc1ccc2c(c1)c1c(n2CC(O)c2ccncc2)CCN2CCCC12 (stereo not drawn) [129a]
[2]; [7]
  inhibition at 0.1 µM: 46%
[3]; [8]
  inhibition at 0.1 µM: 73%

## Cc1ccc2c(c1)c1c(n2CC(O)c2ccncc2)CN(C)CC1 (stereo not drawn) [compound 8]
[2]; compound at 0.1 μM, [3H]MK-912, repeat assays, each datapoint shown, read-out: Percentage inhibition of ligand binding, Adrenergic α2A
  inhibition at 0.1 µM: 23%
[3]; compound at 0.1 μM, [3H]Prazosin, repeat assays, each datapoint shown, read-out: Percentage inhibition of ligand binding, Adrenergic α1B
  inhibition at 0.1 µM: 58%

## Cc1ccc2c(c1)c1c(n2CC(C)(O)c2ccncc2)CCN(C)CC1 (stereo not drawn) [II-134b]
[2]; compound at 0.1 μM, [3H]MK-912, repeat datapoints each shown
  Percentage inhibition of ligand binding, Adrenergic α2A (0.1 μM): 6%
[3]; compound at 0.1 μM, [3H]Prazosin, repeat datapoints each shown
  Percentage inhibition of ligand binding, Adrenergic α1B (0.1 μM): 65%
